Results from US20220354818A1, “METHODS FOR TREATING BRAIN INJURY OR COGNITIVE DYSFUNCTION BY PHARMACOLOGICAL ENHANCMENT OF M-TYPE POTASSIUM ION CURRENTS IN NEURONS” (Advanced Neuroresearch Therapeutics LLC, priority 2019, published 2022).

Test system: C57BL/6J mice subjected to controlled closed cortical impact (CCCI)
Assay: Post-traumatic seizures after CCCI blunt TBI, video/EEG monitoring
Format: in vivo, mouse
Conditions: RTG 1.2 mg/kg i.p. 30 minutes post-TBI, video/EEG three days starting 24 hours after injury
Source text: Male and female mice were used for all experiments performed, except for GFAP, Iba1 and Fluro-Jade B histology experiments and for PSVue794 and Evans Blues imaging.
Animals were divided randomly among cohorts so that each cage included animals from all treatments.
The CCCI model was used to generate reproducible moderate blunt brain injury. This model has the advantages of producing focal contusion in which the skull remains intact. CCCI can most closely simulate blunt-head traumas resulting from falls, physical violence, or motor vehicle accidents and particularly in rodent models often produces spontaneous seizures within 24 hours.
A single trauma per mouse was employed. CCCI was delivered by a pneumatic impact device (Leica Biosystems) following a protocol previously published. A cylindrical probe of 5 mm diameter was used to deliver a calibrated impact to the skull, 1 mm depth over the right parietal cortex and a small portion of the caudal end of the right frontal cortex, at a velocity of 4.5 m/s to produce a moderate TBI. […]
To quantify seizure frequency and determine seizure susceptibility, mice of each cohort were implanted with electroencephalogram (EEG) electrodes 24 hours after CCCI or Sham. […]
Computer-assisted cortical EEGs was recorded and reviewed for the presence of seizures and epileptiform spikes. […] Detected events were visually confirmed by blinded experimenters.

Q: Which “mice displaying post-traumatic seizures” value does the source give for `CCOC(=O)Nc1ccc(NCc2ccc(F)cc2)cc1N` [RTG, 2-amino-4-(4-fluorobenzylamino)-1-ethoxycarbonylaminobenzene] here?
A: no animal treated with RTG post-TBI displayed seizures and zero
